In a compilation of properties of binary mixtures (doi:10.1007/s10953-018-0729-9):

Test: xn = mol fraction of the nth substance listed
Conditions: 101.3 kPa

O=C1CCCN1 + CCCC[n+]1ccn(C)c1.F[P-](F)(F)(F)(F)F
speed of sound [m/s]
Conditions | 303.15 K | 308.15 K | 313.15 K | 318.15 K | 323.15 K
x2 = 0 | 1618 | – | 1585.4 | 1569.4 | –
x2 = 0.0494 | 1584.7 | – | 1553.7 | 1538.4 | 1523.2
x2 = 0.1025 | 1575.2 | 1560 | 1545.1 | 1530.3 | –
x2 = 0.1503 | 1566.5 | 1551.8 | 1537.3 | 1522.9 | 1508.6
x2 = 0.2215 | 1553.8 | – | 1525.6 | 1511.8 | 1498
x2 = 0.3376 | 1532.9 | 1519.5 | 1506.3 | 1493.2 | 1480.2
x2 = 0.4502 | 1512.7 | 1499.9 | – | 1474.8 | 1462.4
x2 = 0.5654 | 1492 | 1479.6 | – | 1455.4 | 1443.5
x2 = 0.6527 | 1476.3 | 1464.2 | 1452.3 | 1440.5 | 1428.8
x2 = 0.7421 | – | 1448.2 | 1436.5 | 1424.8 | 1413.4
x2 = 0.8295 | 1446.5 | 1434.6 | 1422.9 | – | –
x2 = 0.8622 | 1442.6 | 1430.7 | – | 1407.5 | 1396.1
x2 = 0.9019 | 1438.5 | 1426.6 | 1414.8 | 1403.3 | 1391.9
x2 = 0.9495 | – | 1423 | 1411.2 | 1399.6 | –

CCCC[n+]1ccn(C)c1.F[P-](F)(F)(F)(F)F + O=C1CCCN1
x1 = 1
Conditions | speed of sound [m/s]
303.15 K | 1431.7
308.15 K | 1419.8
313.15 K | 1408.2
318.15 K | 1396.8
323.15 K | 1385.6
